In data set [1] the target is T1, recombinant KPC-2 (Klebsiella pneumoniae, UniProt Q9F663).
T1 construct: made in house; host or cells: E. coli BL21 (DE3)
The data set is described as follows: KPC-2 inhibition assay, nitrocefin as reporter substrate. It is filed as biochemical. The note with it: for IC50: nitrocefin 114.28 μM (Km 36 μM), 25°, 485 nm. The procedure: (§1) The blaKPC-2 gene was kindly provided by Prof. Sergei Vakulenko (University of Notre Dame du Lac, Indiana, USA) and cloned as already reported and transformed into competent E.coli BL21 (DE3) cells for protein expression. 50 mL of Tryptic Soy Broth (TSB) (50 mg/L kanamycin) were inoculated with fresh colonies and grown at 37°C. 4 mL of the overnight culture was used to inoculate 1.3 L of TSB (50 mg/L kanamycin) grown at 37°C with shaking to an optical density of 0.5 measured at 600 nm. Then expression of recombinant bla gene was induced by adding 1.0 mM IPTG (isopropyl-D-thiogalactopyranoside) and the cells were again allowed to grow at 20°C overnight. Bacteria were harvested by centrifugation at 4000 rpm for 20 minutes. The pelleted cells were resuspended in Tris-HCl 50 mM pH 7.4–7.5. Periplasmatic proteins were extracted as reported in the pET System Manual (TB055 10th Edition Rev. B 0403) and subsequently dialyzed in sodium acetate buffer (50 mM, pH 5.0). The protein was conveniently purified in a single step using a Macro-Prep High S resin and eluted using sodium acetate 50 mM pH 5.0 and a sodium chloride (NaCl) linear gradient from 100 to 500 mM. The purified protein was dialyzed overnight in sodium phosphate buffer 50 mM, pH 7.0 [31, 32].
(§2) The hydrolytic activity of KPC-2 was measured using the β-lactam substrates CENTA (100 uM, KM 70 uM) or nitrocefin (114 uM, KM 36 μM) in reaction buffer consisting of 50 mM of PB at pH 7.0 at 25°C with 0.01% v/v Triton X-100 to avoid compound aggregation and promiscuous inhibition.[33] Reactions were monitored using a Beckmann DU640 spectrophotometer at […] for CENTA and 480 nm wavelength for nitrocefin [34]. The test compounds were synthesized as described below or purchased from Enamine, TimTec, Vitas-M, ChemBridge, Otava, Life Chemicals or Apollo Scientific and assayed without further purification. Compounds were dissolved in dimethyl sulfoxide (DMSO) to a concentration of 25 mM and stored at -20°C. The highest concentration at which the compounds were tested was up to 1 mM (depending on their solubility). All experiments were performed in duplicate and the error never exceeded 5%. The reaction was typically initiated by adding KPC-2 to the reaction buffer last. To control for incubation effects, protein was added to the reaction buffer first, and the reaction was initiated by the addition of reporter substrate after 10 minutes of enzyme-compound incubation.
Kinetic were monitored at 25° by following the absorbance variation at λ = 485 nm. ^[b] If no IC50 has been measured, percent inhibition at the highest tested concentration is given in parentheses. […] When % Inhibition was below 10% No Inhibition (NI) is reported. TEXT PRINTED IN THE PICTURE: 11a: IC50 mM [a,b]: 0.036 | 1b: IC50 mM [a,b]: > 0.2 (25) | 2b: IC50 mM [a,b]: >0.6 (23) | 3b: IC50 mM [a,b]: Not tested not soluble | 4b: IC50 mM [a,b]: > 0.2 (16) | 5b: IC50 mM [a,b]: > 0.2 (13) | 6b: IC50 mM [a,b]: NI at 0.2 | 7b: IC50 mM [a,b]: >1.0 (30) | 8b: IC50 mM [a,b]: > 1.0 (37) | 9b: IC50 mM [a,b]: NI at 0.5 | 10b: IC50 mM [a,b]: NI at 0.5 | 11b: IC50 mM [a,b]: > 1.0 (37) | 12b: IC50 mM [a,b]: NI at 0.5 | 13b: IC50 mM [a,b]: NI at 0.5 | 14b: IC50 mM [a,b]: >500 (20) DOUBTS OF THE COPYIST ABOUT THIS PICTURE: column head: raised note printed very small, read as [a,b]

For a further data set, the system named is Kpn 53A8. The data set is described as follows: MIC of meropenem, alone or 1:1 with compounds, KPC-2 clinical strain. It is filed as cell-based, K. pneumoniae. To be noted: for fold reduction of meropenem MIC in combination with compound: strain Kpn 53A8. The procedure:
(§3) The antimicrobial activity of the best hits 9a and 11a and their derivatives was studied in bacterial cell cultures to investigate their ability to cross the outer membrane reaching the periplasmic space, where KPC-2 is secreted and confined in Gram negative bacteria. Compounds were tested for synergy with the β-lactam antibiotic meropenem against four K. pneumoniae clinical strains, isolated from different patients at the Hospital Universitario Son Espases, Palma de Mallorca, Spain. […] The three additional strains harbored the blaKPC-2 gene and were resistant to meropenem (Table 2). […] However, against strain Kpn 53A8 the MIC value was lowered by a factor of two when meropenem was combined with compounds 32a, 1b, 2b, 5b and 6b while in combination with compound 11a the MIC value was reduced by 4 fold.

Data set [2] concerns the target T1, recombinant KPC-2. The data set is described as follows: KPC-2 inhibition assay, CENTA as reporter substrate. The format is biochemical. The procedure:
as §1, §2
Fig 4 Inhibitory activity of compounds selected from virtual screening. ^[a]Assays were performed in duplicate (errors were less than 5%) with CENTA as reporter substrate (100 μM, km 70 μM). Kinetic were monitored at 25° by following the absorbance variation at λ = 405 nm. ^[b] If no IC50 has been measured, percent inhibition at the highest tested concentration is given in parentheses. For example, > 0.50 (26%) implies that the highest concentration tested was 0.50 mM; at this concentration, the enzyme was inhibited by 26%. Therefore, IC50> 0.50 mM. When % Inhibition was below 10% No Inibition (NI) is reported. ^[c]Assays were run after 10’ incubation of the inhibitor with KPC-2. Reaction was started by the addition of CENTA. […] 0 (11) | 32a: IC50 mM ^[a,b]: 1.24
Competitive inhibition mechanism and the Ki for compound 9a was determined by Lineweaver–Burk (LB) and Dixon plots.

A further data set deals with CTX-M9 (Escherichia coli, UniProt Q9L5C8). The data set is described as follows: Inhibition of other class A β-lactamase CTX-M9. It is filed as biochemical. The procedure: (§4) For compound 9a binding affinity and mode of inhibition was determined by using gradient concentrations of CENTA. […] For this compound aggregating behavior was also excluded by dynamic light scattering experiment (data not shown).

A short description of data set [3]: Dynamic light scattering, aggregating behavior. It is filed as physicochemical. The note with it: dynamic light scattering (data not shown). The procedure: as §4
For the next data set, the system named is Kpn (C-). The data set is described as follows: MIC of meropenem, alone or 1:1 with compounds, control strain. It is filed as cell-based, K. pneumoniae. To be noted: Klebsiella pneumoniae, no compound added. As to the method: as §3
Another data set deals with Kpn 53A9. The data set is described as follows: MIC of meropenem, alone or 1:1 with compounds, KPC-2 clinical strain. The format is cell-based, K. pneumoniae. To be noted: Klebsiella pneumoniae, no compound added. The procedure:
as §3

The next data set concerns Kpn 99D8. Described as above. It is filed as cell-based, K. pneumoniae. The note with it: Klebsiella pneumoniae, no compound added. As to the method: as §3
Setting [4] is: read-out: percent inhibition at the highest tested concentration.

Structures are written as SMILES.

T1 sequence (Q9F663 25-293, looked up): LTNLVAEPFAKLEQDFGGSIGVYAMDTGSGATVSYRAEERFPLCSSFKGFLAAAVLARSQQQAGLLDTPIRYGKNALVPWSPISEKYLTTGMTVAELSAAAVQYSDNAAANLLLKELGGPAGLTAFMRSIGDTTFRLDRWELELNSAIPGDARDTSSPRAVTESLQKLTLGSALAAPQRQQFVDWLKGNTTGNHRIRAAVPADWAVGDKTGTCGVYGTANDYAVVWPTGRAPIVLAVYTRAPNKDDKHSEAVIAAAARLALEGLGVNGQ
CTX-M9, sequence (Q9L5C8 29-291): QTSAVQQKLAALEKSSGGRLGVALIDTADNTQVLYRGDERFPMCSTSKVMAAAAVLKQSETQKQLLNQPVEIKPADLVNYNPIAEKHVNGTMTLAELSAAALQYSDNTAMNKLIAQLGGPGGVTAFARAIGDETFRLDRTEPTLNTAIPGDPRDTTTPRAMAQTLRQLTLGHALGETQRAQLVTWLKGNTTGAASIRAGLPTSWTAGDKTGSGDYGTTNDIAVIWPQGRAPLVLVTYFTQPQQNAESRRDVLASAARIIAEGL

On to `O=S(=O)(Nc1cccc(-c2nnn[nH]2)c1)c1cccc(F)c1` [1b, N-(3-(1H-tetrazol-5-yl)phenyl)-3-fluorobenzenesulfonamide], for which, on recombinant KPC-2 [1], the IC50 (commonly the concentration at which inhibition is half-maximal) was more than 200 µM. In addition, the inhibition at 200 µM at recombinant KPC-2 [1] (setting [4]) was determined as 25%. In addition, the “fold reduction of meropenem MIC in combination with compound” value (shortened to “fold reduction of meropenem MIC”) in the data set with Kpn 53A8 is “two”.
Regarding `O=[N+]([O-])c1cccc(S(=O)(=O)Nc2cccc(-c3nnn[nH]3)c2)c1` [2b, N-(3-(1H-tetrazol-5-yl)phenyl)-3-nitrobenzenesulfonamide], the IC50 at recombinant KPC-2 [1] was more than 600 µM. Further, the inhibition at 600 µM on recombinant KPC-2 [1] (setting [4]) is 23%. The “fold reduction of meropenem MIC” value in the data set with Kpn 53A8 is given as “two”.
As to `O=S(=O)(Nc1cccc(-c2nnn[nH]2)c1)c1cccc2cccnc12` [5b, N-(3-(1H-tetrazol-5-yl)phenyl)quinoline-8-sulfonamide], at recombinant KPC-2 [1], the IC50 is more than 200 µM. For the same compound, the inhibition at 200 µM on recombinant KPC-2 [1] (setting [4]) was 13%. For the same compound, the “fold reduction of meropenem MIC” value with Kpn 53A8 is reported as “two”.
As for `O=S(=O)(Nc1cccc(-c2nnn[nH]2)c1)c1ccc(Cl)cc1` [6b, N-(3-(1H-tetrazol-5-yl)phenyl)-4-chlorobenzenesulfonamide], the inhibition at 200 µM at recombinant KPC-2 [1] (setting [4]) is less than 10%. For the same compound, the “fold reduction of meropenem MIC” value with Kpn 53A8 was “two”.
`COc1ccc2nc(C(=O)O)sc2c1` [9a]: the IC50 on recombinant KPC-2 [2] (CENTA 100 μM, after 10' incubation of the inhibitor with KPC-2, read-out: IC50) came out at 150 µM. For the same compound, at recombinant KPC-2 [2] (Lineweaver–Burk and Dixon plots, gradient concentrations of CENTA, read-out: Ki (determined)), the Ki (commonly a dissociation constant, usually derived from enzyme kinetics or from competition with a known ligand) is 112 µM. Besides, on recombinant KPC-2 [2] (vs KPC-2), the “ligand efficiency (LE)” value was 0.38 kcal/mol/non-hydrogen atom and the mode of inhibition entry is reported as “competitive inhibitor”. Besides, it took 160 µM to reach half-maximal inhibition at CTX-M9 (IC50). In data set [3], the aggregating behavior result is on record as “excluded”.
Turning to `C[C@@H](O)[C@H]1C(=O)N2C(C(=O)O)=C(S[C@@H]3CN[C@H](C(=O)N(C)C)C3)[C@H](C)[C@H]12` [meropenem], the MIC – broadly, the smallest concentration in the dilution series that meets the test's criterion for growth inhibition – was less than 0.25 µg/mL with Kpn (C-); 256 µg/mL in the data set with Kpn 53A9; 256 µg/mL in the data set on Kpn 53A8 (Klebsiella pneumoniae, Kpn 53A8, no compound added); 256 µg/mL in the data set with Kpn 99D8.

The values above are taken from PMC6264499, “In silico identification and experimental validation of hits active against KPC-2 β-lactamase” (PLoS ONE, 2018).
